In US12187705B2, “Heteroaryl-triazole and heteroaryl-tetrazole compounds as pesticides” (Bayer Aktiengesellschaft, priority 2018, dated 2025) one finds mortality and pest or weed control data, which are given here for 14 compounds.

Holding throughout (type): in vivo
One test has as its system Nilaparvata lugens. Briefly: Nilaparvata lugens spray test. The note with it: Nilaparvata lugens, in Oryza sativa, 96 h. The procedure: Nilaparvata lugens—Spray Test
(§1) To produce a suitable preparation of active compound, 1 part by weight of active compound is mixed with the stated amount of solvents and is diluted with water, containing an emulsifier concentration of 1000 ppm, to the desired concentration. Further test concentrations are prepared by dilution with emulsifier containing water.
Rice plants (Oryza sativa) are sprayed with a preparation of the active ingredient of the desired concentration and the plants are infested with the brown planthopper (Nilaparvata lugens).
After 4 days mortality in % is determined. 100% means all planthoppers have been killed and 0% means none of the planthoppers have been killed.

A further test relates to Myzus persicae. Kind of test: Myzus persicae oral test. As to conditions: 120 h. The protocol:
To produce a suitable preparation of active compound, 1 part by weight of active compound is mixed with the stated amount of solvent, and the concentrate is diluted with water to the desired concentration.
50 μl compound solution is filled in microtiter plates and 150 μl IPL41 insect medium (33%+15% sugar) is added to obtain a total volume of 200 μl per well. Afterwards the plates are sealed with parafilm through which a mixed population of the green peach aphid (Myzus persicae) can suck on the compound preparation.
After 5 days mortality in % is determined. 100% means all aphids have been killed and 0% means none of the aphids have been killed.

In a further test the test system is Nezara viridula. Briefly: Nezara viridula spray test. As to conditions: in Hordeum vulgare, 96 h. The procedure:
Nezara viridula—Spray Test
(§2) To produce a suitable preparation of active compound, 1 part by weight of active compound is mixed with the stated amount of solvent, and the concentrate is diluted with water, containing an emulsifier concentration of 1000 ppm, to the desired concentration. Further test concentrations are prepared by dilution with emulsifier containing water.
Barley plants (Hordeum vulgare) infested with larvae of the southern green stink bug (Nezara viridula) are sprayed with a test solution containing the desired concentration of the active ingredient.
After 4 days mortality in % is determined. 100% means all the stink bugs have been killed; 0% means none of the stink bugs have been killed.

A further test concerns Spodoptera frugiperda. Kind of test: Spodoptera frugiperda spray test. As to conditions: in Zea mays, 168 h. The procedure: Spodoptera frugiperda—Spray Test
as §1
Maize (Zea mays) leaf sections are sprayed with a preparation of the active ingredient of the desired concentration. Once dry, the leaf sections are infested with fall armyworm larvae (Spodoptera frugiperda).
After 7 days mortality in % is determined. 100% means all caterpillars have been killed and 0% means none of the caterpillars have been killed.

The next test concerns Diabrotica balteata. Kind of test: Diabrotica balteata spray test. As to conditions: Diabrotica balteata, 168 h; 160 μg/well, wheat seeds, after 7 days; read-out: efficacy (seedlings grown). The protocol:
Diabrotica balteata—Spray Test
as §2
Soaked wheat seeds (Triticum aestivum) are placed in a multiple well plate filled with agar and some water and are incubated for 1 day to germinate (5 seeds per well). The germinated wheat seeds are sprayed with a test solution containing the desired concentration of the active ingredient. Afterwards each unit is infected with 10-20 larvae of the banded cucumber beetle (Diabrotica balteata).
After 7 days efficacy in % is determined. 100% means all the seedlings have grown up like in the untreated, uninfected control; 0% means none of the seedlings have grown.

The subject of test [1] is Ctenocephalides felis. Briefly: Ctenocephalides felis in-vitro contact test adult cat flea. The note with it: Ctenocephalides felis; 5 μg/cm^2 (=500 g/ha), after 48 hours; read-out: efficacy (fleas dead or moribund). The protocol: Ctenocephalides felis—In-Vitro Contact Test Adult Cat Flea
9 mg compound is solved in 1 ml acetone and diluted with acetone to the desired concentration. 250 μl of the test solution is filled in 25 ml glass test tubes and homogeneously distributed on the inner walls by rotation and tilting on a shaking device (2 h at 30 rpm). With a compound concentration of 900 ppm, an inner surface of 44.7 cm^2 and a homogeneous distribution, a dose of 5 μg/cm^2 is achieved.
After the solvent has evaporated, each test tube is filled with 5-10 adult cat fleas (Ctenocephalides felis), closed with a perforated lid and incubated in a lying position at room temperature and relative humidity. After 48 hours efficacy is determined. The fleas are patted on the ground of the tubes and are incubated on a heating plate at 45-50° C. for at most 5 minutes. Immotile or uncoordinated moving fleas, which are not able to escape the heat by climbing upwards, are marked as dead or moribund.
An efficacy of 100% means all fleas are dead or moribund; 0% means no fleas are dead or moribund.

Test [2] deals with Ctenocephalides felis. Kind of test: Ctenocephalides felis oral test. The note with it: Ctenocephalides felis, in Bos taurus, po, 48 h. The procedure:
Ctenocephalides felis—Oral Test
(§3) Solvent: dimethyl sulfoxide
To produce a suitable preparation of active compound, 10 mg of active compound are dissolved in 0.5 ml solvent, and the concentrate is diluted with cattle blood to the desired concentration.
Approximately 20 adult unfed cat fleas (Ctenocephalides felis) are placed in flea chambers. The blood chamber, sealed with parafilm on the bottom, are filled with cattle blood supplied with compound solution and placed on the gauze covered top of the flea chamber, so that the fleas are able to suck the blood. The blood chamber is heated to 37° C. whereas the flea chamber is kept at room temperature.
After 2 days mortality in % is determined. 100% means all the fleas have been killed; 0% means none of the fleas have been killed.

For the next test, the system named is Boophilus microplus. Kind of test: Boophilus microplus injection test. As to conditions: Rhipicephalus microplus, 168 h, 20 μg/animal, egg deposition after 7 days, read-out: efficacy (infertile eggs). The protocol:
Boophilus microplus—Injection Test
as §3
To produce a suitable preparation of active compound, 10 mg of active compound are dissolved in 0.5 ml solvent, and the concentrate is diluted with solvent to the desired concentration.
Five adult engorged female ticks (Boophilus microplus) are injected with 1 μl compound solution into the abdomen. The ticks are transferred into replica plates and incubated in a climate chamber.
After 7 days egg deposition of fertile eggs is monitored. Eggs where fertility is not visible are stored in a climate chamber till hatching after about 42 days. An efficacy of 100% means all eggs are infertile; 0% means all eggs are fertile.

Test [3] relates to Culex quinquefasciatus strain P00. Kind of test: Culex quinquefasciatus test (CULXFA surface treatment & contact assay). The note with it: 24 hours after contact, read-out: efficacy (mortality); for mortality at 4 mg/m2: surface concentration 4 mg/m^2, 30 minutes exposure; for mortality at 20 mg/m2: surface concentration 20 mg/m^2, 30 minutes exposure. The protocol:
Culex quinquefasciatus Test (CULXFA Surface Treatment & Contact Assay)
(§4) Solvent: Aceton+2000 ppm rapeseed oil methyl ester (RME)
In order to produce a sufficient, active ingredient containing solution it is necessary to solve the test-compound in the solvent-mix (Acetone at 2 mg/ml/RME 2000 ppm). This solution is pipetted onto a glazed tile and after evaporation of the Acetone, adult mosquitoes of the species Culex quinquefasciatus strain P00 are placed onto the dried surface. The exposure time is 30 minutes.
(§5) Mortality in percent (%) is determined 24 hours after contact to the treated surface. 100% mortality means that all test-insects are dead, whereas 0% means that not a single insect died.

Test [4] concerns Aedes aegypti strain MONHEIM. Kind of test: Aedes aegypti test (AEDSAE surface treatment & contact assay). As to conditions: 24 hours after contact, read-out: efficacy (mortality); for mortality at 4 mg/m2: surface concentration 4 mg/m^2, 30 minutes exposure; for mortality at 20 mg/m2: surface concentration 20 mg/m^2, 30 minutes exposure. The procedure: Aedes aegypti Test (AEDSAE Surface Treatment & Contact Assay)
as §4
In order to produce a sufficient, active ingredient containing solution it is necessary to solve the test-compound in the solvent-mix (Acetone at 2 mg/ml/RME 2000 ppm). This solution is pipetted onto a glazed tile and after evaporation of the Acetone, adult mosquitoes of the species Aedes aegypti strain MONHEIM are placed onto the dried surface. The exposure time is 30 minutes.
as §5

For orientation: mortality means the percentage killed. In turn, `CC(c1ncnn1-c1ncccn1)N(CC1CC1)C(=O)c1c(F)cccc1F` (stereo not drawn) [Example I-018] registered a mortality at 500 g/ha in the test with Nilaparvata lugens of 100%.
`C[C@H](NC(=O)c1cc(Cl)cc(S(=O)(=O)C(F)(F)F)c1)c1ncnn1-c1ncccn1` [Example I-033, 3-chloro-N-{(1S)-1-[1-(pyrimidin-2-yl)-1H-1,2,4-triazol-5-yl]ethyl}-5-[(trifluoromethyl)sulfonyl]benzamide] came in with a mortality at 4 ppm with Myzus persicae of 100%. Also, the mortality at 500 g/ha in the test with Nezara viridula, with Spodoptera frugiperda and in the test with Nilaparvata lugens was 100% each time. Further, the pest or weed control at 160 µg/disc, 160 µg/well in the test with Diabrotica balteata was 100%.
In the case of `CC(C)S(=O)(=O)c1cc(Cl)cc(C(=O)N[C@@H](C)c2ncnn2-c2ncccn2)c1` [Example I-051, 3-chloro-5-(isopropylsulfonyl)-N-{(1S)-1-[1-(pyrimidin-2-yl)-1H-1,2,4-triazol-5-yl]ethyl}benzamide], the pest or weed control at 5 µg/cm2, 5 µg/cm2 in the test on Ctenocephalides felis [1] came out at 80%. Besides, in the test with Ctenocephalides felis [2], the mortality at 100 ppm was found to be 100%. Besides, the mortality at 4 ppm with Myzus persicae worked out at 100%. In addition, the mortality at 500 g/ha in the test on Nezara viridula and with Spodoptera frugiperda was 100% each time. Moreover, the pest or weed control at 160 µg/disc, 160 µg/well in the test on Diabrotica balteata came to 100%. Moreover, the pest or weed control at 0.02 mg in the test with Boophilus microplus worked out at 100%.
With `COC[C@H](NC(=O)c1cc(Cl)cc(S(C)(=O)=O)c1)c1ncnn1-c1ncccn1` [Example I-059], in the test on Ctenocephalides felis [1], the pest or weed control at 5 µg/cm2, 5 µg/cm2 turned out to be 80%. The same compound displayed a mortality at 100 ppm in the test with Ctenocephalides felis [2] of 100%. Further, the mortality at 500 g/ha in the test on Nilaparvata lugens came to 100%.
On to `C[C@H](NC(=O)c1cc(Cl)cc(S(C)(=O)=O)c1)c1ncnn1-c1ccc(OC(F)F)cn1` [Example I-063], for which the mortality at 4 mg/m2 in [3] and in test [4] was 80 to 100% throughout. Besides, the figures for the mortality at 20 mg/m2 in test [3] and in [4] were 80 to 100% and 90 to 100%, respectively. The compound also displayed a mortality at 4 ppm in the test on Myzus persicae of 100%. The mortality at 500 g/ha in the test with Nezara viridula and with Spodoptera frugiperda was 100% throughout. In addition, the pest or weed control at 160 µg/disc, 160 µg/well in the test with Diabrotica balteata was determined as 100%.
In the test on Spodoptera frugiperda, `C[C@H](NC(=O)c1cc(Cl)cc(S(C)(=O)=O)c1)c1ncnn1-c1ccc(SC(F)(F)F)cn1` [Example I-064] displayed a mortality at 500 g/ha of 100%. Moreover, the pest or weed control at 160 µg/disc, 160 µg/well in the test with Diabrotica balteata was 100%.
In the case of `C[C@@H](NC(=O)c1cc(Cl)cc(S(=O)(=O)C(F)(F)F)c1)c1ncnn1-c1nccs1` [Example I-077], in the test on Ctenocephalides felis [2], the mortality at 100 ppm was determined as 90%. Moreover, in the test on Spodoptera frugiperda, the mortality at 500 g/ha was 100%. The pest or weed control at 160 µg/disc, 160 µg/well in the test with Diabrotica balteata was found to be 100%. For the same compound, the mortality at 20 mg/m2 in [4] lay within 90 to 100%. The pest or weed control at 0.02 mg in the test on Boophilus microplus stood at 100%.
Regarding `C[C@@H](NC(=O)c1cc(Cl)cc(S(C)(=O)=O)c1)c1ncnn1-c1ccc(C(F)(F)F)cn1` [Example I-089], the pest or weed control at 5 µg/cm2, 5 µg/cm2 in the test with Ctenocephalides felis [1] amounted to 100%. In addition, the mortality at 100 ppm in the test on Ctenocephalides felis [2] came out at 100%. Also, the mortality at 4 mg/m2 in [3] and in [4] was 80 to 100% in each case. Further, the mortality at 20 mg/m2 in test [3] lay within 80 to 100%; in test [4] it was 90 to 100%. Besides, the mortality at 500 g/ha in the test with Nezara viridula and in the test on Spodoptera frugiperda was 100% each time. Further, the pest or weed control at 160 µg/disc, 160 µg/well in the test with Diabrotica balteata stood at 100%.
In the test on Spodoptera frugiperda, `CC(NC(=O)c1cc(Cl)cc(-n2ccc(C(F)(F)F)n2)c1)c1ncnn1-c1ncccn1` (stereo not drawn) [Example I-094] came in with a mortality at 500 g/ha of 83%. The pest or weed control at 160 µg/disc, 160 µg/well in the test with Diabrotica balteata was determined as 100%.
For the compound `C[C@@H](NC(=O)c1cc(Cl)cc(S(C)(=O)=O)c1)c1nc(C(F)(F)F)nn1-c1ccc(C#N)cn1` [Example I-110], the mortality at 500 g/ha in the test on Nezara viridula and in the test with Spodoptera frugiperda was 100% in each case.
`C[C@@H](NC(=O)c1cncc(-c2ccc(F)cc2)c1)c1ncnn1-c1ncccn1` [Example I-111] came in with a mortality at 500 g/ha with Nilaparvata lugens of 100%.
Take `C[C@@H](NC(=O)c1cc(F)cc(C2CC2)c1)c1ncnn1-c1ccc(C#N)cn1` [Example I-113]: the mortality at 500 g/ha with Nezara viridula came out at 90%; in the test on Spodoptera frugiperda it was 100%. The pest or weed control at 160 µg/disc, 160 µg/well in the test on Diabrotica balteata worked out at 100%.
For the compound `C[C@H](NC(=S)c1cc(F)cc(C2CC2)c1)c1ncnn1-c1ccc(C#N)cn1` [Example I-120, N-{(1S)-1-[1-(5-cyanopyridin-2-yl)-1H-1,2,4-triazol-5-yl]ethyl}-3-cyclopropyl-5-fluorobenzenecarbothioamide], the mortality at 500 g/ha in the test with Nezara viridula, in the test with Spodoptera frugiperda and in the test on Nilaparvata lugens was 100% throughout. Further, the pest or weed control at 160 µg/disc, 160 µg/well in the test with Diabrotica balteata came out at 100%.
With `C[C@@H](NC(=O)c1cc(-c2ccc(F)cc2)cc(C(F)(F)F)c1)c1ncnn1-c1ccc(C#N)cn1` [Example I-123], in the test on Spodoptera frugiperda, the mortality at 500 g/ha is 100%. For the same compound, in the test with Diabrotica balteata, the pest or weed control at 160 µg/disc, 160 µg/well came out at 100%.
